Experimental findings from PMC6385104, “Momilactones A and B Are α-Amylase and α-Glucosidase Inhibitors” (Molecules, 2019) are described below.

One experiment addresses T1, α-glucosidase (Saccharomyces cerevisiae, UniProt P53341).
T1 construct: purchased Sigma-Aldrich
The experiment is described as follows: α-Glucosidase inhibition assay (pNPG substrate). Type of experiment: biochemical. The following applies: for suppressive property on α-glucosidase relative to acarbose (fold greater than acarbose): ratio of IC50 values versus acarbose; for IC50: α-glucosidase from Saccharomyces cerevisiae, pNPG substrate, 25 °C, pH 7, mean ± standard error, read-out: α-Glucosidase Inhibitory Assay (IC50) (converted). On the procedure: The anti-α-glucosidase activity of MA and MB was evaluated using a method as described previously with some alterations. In brief, an amount of 20 µL methanolic stock solution of MA and MB were pre-mixed with an equal volume of 0.1 M potassium phosphate buffer (pH 7) and 40 µL of α-glucosidase (from Saccharomyces cerevisiae, Sigma-Aldrich, St. Louis, MO, USA) enzyme solution (0.5 U/mL in 0.1 M potassium phosphate buffer, pH 7). After 6 min incubation at 25 °C, a 20 µL aliquot of 5 mM p-nitrophenyl-α-D-glucopyranoside (pNPG) substrate (in 0.1 M potassium phosphate buffer, pH 7) was added to each reaction and the mixture was incubated for another 8 min. Eventually, the reaction was terminated by adding 100 µL of 0.2 M Na2CO3, and absorbance was recorded at 405 nm. […] IC50 value was obtained by the same way as above.

For a further experiment, the target named is T2, α-amylase (Aspergillus oryzae, UniProt P0C1B3).
T2 construct: purchased Sigma-Aldrich
The experiment is described as follows: biochemical. Format: biochemical. Conditions: for IC50: α-amylase from Aspergillus oryzae, starch substrate, 37 °C, pH 6.9, mean ± standard error, read-out: α-Amylase Inhibitory Assay (IC50) (converted). The method, then:
The inhibitory effect of MA and MB on α-amylase was assessed by starch-iodine method with a modified model as follows: in each well of a microplate (U-shape, Greiner Bio-one, NC, USA), 20 µL of each either MA or MB were pre-incubated with 20 µL of 1 U/mL α-amylase solution (from Aspergillus oryzae, Sigma-Aldrich, St. Louis, MO, USA) at 37 °C for 10 min. The reaction was initiated by pipetting 30 µL of starch (0.5% in deionized water) (soluble ACS reagent, Sigma-Aldrich, St. Louis, MO, USA). After 6 min incubation at 37 °C, an aliquot of 20 µL of hydrochloric acid (1 M) were added to stop reaction, followed by 120 µL of 0.25 mM aqueous iodine solution. The absorbance at 565 nm was read by a microplate reader (Multiskan^TM Microplate Spectrophotometer, Thermo Fisher Scientific, Osaka, Japan). The inhibitory activity of MA and MB on α-amylase was performed as the inhibition percentage that was calculated by the following formula:% inhibition = (A − C)/(B − C) × 100(2) where A is the absorbance of reaction with presence of MA or MB, B is the absorbance of reaction without enzyme, C is the absorbance of reaction with absence of the momilactones. […] Dilutions of test samples and dissolutions of enzyme used 20 mM sodium phosphate buffer (pH 6.9 comprising of 6 mM sodium chloride). α-Amylase solution and soluble starch solution were prepared and used on the day of experiment.

[1] abbreviates: ratio of IC50 values, MB versus MA.

T1 sequence (P53341 whole entry): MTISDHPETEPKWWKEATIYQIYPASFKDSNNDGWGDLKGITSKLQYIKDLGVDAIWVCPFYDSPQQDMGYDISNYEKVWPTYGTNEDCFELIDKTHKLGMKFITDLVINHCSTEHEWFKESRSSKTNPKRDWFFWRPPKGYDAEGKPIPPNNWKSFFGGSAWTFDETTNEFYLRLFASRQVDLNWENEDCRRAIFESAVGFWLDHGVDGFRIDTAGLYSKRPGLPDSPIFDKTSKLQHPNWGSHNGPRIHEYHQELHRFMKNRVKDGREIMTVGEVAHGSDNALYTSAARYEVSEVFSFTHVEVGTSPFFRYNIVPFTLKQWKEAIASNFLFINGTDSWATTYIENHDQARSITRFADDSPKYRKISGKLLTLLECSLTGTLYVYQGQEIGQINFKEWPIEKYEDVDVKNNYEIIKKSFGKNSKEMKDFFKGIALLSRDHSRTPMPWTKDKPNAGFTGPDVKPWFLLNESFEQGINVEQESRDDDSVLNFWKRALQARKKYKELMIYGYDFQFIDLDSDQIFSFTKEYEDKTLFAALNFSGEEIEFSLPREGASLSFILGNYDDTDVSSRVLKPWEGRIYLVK

In the case of `C=CC1(C)CCC2C(=CC3OC(=O)C4(C)C3C23CCC4(O)OC3)C1` (centres unmarked) [MB, momilactone B], the “suppressive property on α-glucosidase relative to acarbose (fold greater than acarbose)” value on α-glucosidase is listed as 4.2 fold. Further, on α-glucosidase (setting [1]), the “inhibitory activity on α-glucosidase of MB relative to MA (fold stronger)” value was 1.6 fold. Further, the IC50 is 1850 µM on α-glucosidase and 444 µM at α-amylase. For the same compound, the “inhibitory activity on α-amylase of MB relative to MA (fold stronger)” value at α-amylase (setting [1]) amounted to 1.8 fold.

On to `C=C[C@]1(C)CC[C@H]2C(=C[C@H]3OC(=O)[C@@]4(C)C(=O)CC[C@@]2(C)[C@@H]34)C1` [MA, momilactone A], for which, on α-glucosidase, the “suppressive property on α-glucosidase relative to acarbose (fold greater than acarbose)” value is 2.5 fold. Moreover, the figures for the IC50 at α-glucosidase and on α-amylase were 3150 µM and 848 µM, respectively.

For orientation: IC50 means the concentration at which inhibition is half-maximal.
